# Laboratory results: US20150139971A1, “METHOD FOR PREPARING REGULATORY DENDRITIC CELLS” (NIPPON KAYAKU KABUSHIKI KAISHA, priority 2010, published 2015)
# Legend:
# [1] = tested on: dendritic cells derived from C57BL/6 mouse bone marrow cells; experiment: Expression of costimulatory molecules CD40, CD80, CD86 by flow cytometry (MFI) on matured dendritic cells; format: cell-based
# Protocol: (§1) The C57BL/6 mouse bone marrow cells were cultured for 7 days in 10% FCS-RPMI1640 medium containing 20 ng/mL GM-CSF (Peprotech, origin: rabbit) and 20 ng/mL IL-4 (Peprotech, origin: rabbit) so as to cause the cells to differentiate into dendritic cells. Subsequently, 20 ng/mL TNF-α (Peprotech, origin: rabbit) was added for maturation. Treatment with NK026680 was performed by adding 50 ng/mL NK026680 on days 2 and 4 of culture and adding 250 ng/mL NK026680 on day 6 of culture.
# The BALB/c mouse-derived spleen cell extract was added to dendritic cells derived from bone marrow cells which were collected from the C57BL/6 mouse, thereby causing cells to present a BALB/c antigen. The effect of incorporating the BALB/c antigen was confirmed by measuring the expression of 1-Ad (antibody: BD pharmingen), which is a BALB/c major histocompatibility complex (MHC), by flow cytometry. At this time, cells were cultured in the presence or the absence of NK026680, and the cells were allowed to mature with TNF-α (Peprotech, origin: rabbit). Maturation of dendritic cells was confirmed by flow cytometric analysis of the expression of the mature dendritic cell marker. Fluorescence-labeled antibodies against CD40, CD80 and CD86 costimulatory molecules were reacted in NK026680-treated dendritic cells (NK-DC) of the present invention and untreated dendritic cells (CTR-DC). Mean fluorescence intensity (MFI) was measured by flow cytometry, so that the expression levels of CD40, CD80, and CD86 were compared.
# [2] = tested on: dendritic cells derived from C57BL/6 mouse bone marrow cells; experiment: IL-6 and IL-12p40 in culture supernatant of dendritic cells by ELISA; format: cell-based
# Protocol: as §1
# In this Example 2, in a manner similar to that in Example 1, the dendritic cells of the present invention treated with NK026680 and untreated dendritic cells, which had been obtained by differentiation and maturation of C57BL/6 mouse bone marrow cells, were obtained. After stimulation with TNF, cells were cultured for 24 hours. The thus obtained culture supernatant was collected, and then the concentrations of immune-response-stimulating cytokines, IL-6 and IL-12p40, were measured by ELISA (BD bioscience) (n=3).
# [3] = tested on: autoimmune angiitis model; conditions: Non-patent Document 6; cited from earlier work
# [4] = tested on: dendritic cells; conditions: dendritic cells cultured in the presence of the compound; cited from earlier work
# [5] = tested on: graft-versus-host disease model; conditions: Non-patent Document 5; cited from earlier work
smiles,measurement,setting,value
"COc1ccc(-c2ccnc3nc(NC(=O)N[C@@H](C)CCCC(C)(C)O)nn23)cc1 [NK026680, (S)-(+)-1-(5-hydroxy-1,5-dimethylhexyl)-3-[7-(4-methoxyphenyl)-[1,2,4]triazolo[1,5-a]pyrimidin-2-yl]urea]",CD40 (MFI),"[1]; NK026680 50 ng/mL on days 2 and 4, 250 ng/mL on day 6, BALB/c antigen, matured with TNF-α, untreated cells 244",159 MFI
same,CD86 (MFI),"[1]; NK026680 50 ng/mL on days 2 and 4, 250 ng/mL on day 6, BALB/c antigen, matured with TNF-α, untreated cells 356",217 MFI
same,CD80 (MFI),"[1]; NK026680 50 ng/mL on days 2 and 4, 250 ng/mL on day 6, BALB/c antigen, matured with TNF-α, untreated cells 659",320 MFI
same,"expression levels of CD40, CD80 and CD86 compared with untreated dendritic cells (CTR-DC)",[1]; in words,lower
same,IL-6,"[2]; culture supernatant 24 hours after TNF stimulation, n=3, untreated cells 1235 ± 272",219 ± 94 pg/mL
same,IL-12p40,"[2]; culture supernatant 24 hours after TNF stimulation, n=3, untreated cells 1555 ± 650",347 ± 100 pg/mL
same,concentrations of IL-6 and IL-12p40 in culture supernatant compared with untreated dendritic cells,[2]; in words,lower
same,effects against an autoimmune angiitis model,[3],exhibited effects
same,expression level of a costimulatory molecule,[4],decreased
same,effects against a graft-versus-host disease model,[5],exhibited effects
